From patent US7329657B2, “Indazolyl-substituted pyrroline compounds as kinase inhibitors” (Ortho-McNeil Pharmaceutical, Inc., priority 2000, dated 2008) come the findings set out here.

What all share (type): biochemical
For one assay, the target named is PKC β-II (Homo sapiens, UniProt P05771). Description: Protein Kinase C Histone-Based Assay, β-II isoform. The conditions noted are these: histone III substrate, 30 μM ATP, 10 min at 30° C.; read-out: PKC Activity (IC50 μM, Histone Based Assay) Beta II. The procedure:
(§1) Compounds were evaluated for PKC selectivity using histone III as the substrate. […] The reaction was incubated for 10 min at 30° C. Reactions were terminated by TCA precipitation and spotting on Whatman P81 filters. Filters were washed in 75 mM phosphoric acid and the radioactivity quantified by liquid scintillation counting.

For another assay, the target named is PKC α (Homo sapiens, UniProt P17252). In words: Protein Kinase C Histone-Based Assay, α isoform. The conditions noted are these: histone III substrate, 30 μM ATP, 10 min at 30° C.; read-out: PKC Activity (IC50 μM, Histone Based Assay) Alpha. The procedure: as §1
Assay [1] deals with T1, recombinant rabbit GSK-3β protein (Oryctolagus cuniculus, UniProt G1T8E2).
T1 construct: purchased New England Biolabs
Description: Glycogen Synthase Kinase-3 Assay. The conditions noted are these: PPI-2 substrate, 33P-ATP, 90 minutes at 30° C. The procedure: Compounds were tested for the ability to inhibit recombinant rabbit GSK-3β protein using the following protocol. The test compound was added to a reaction mixture containing Protein phosphatase inhibitor-2 (PPI-2) (Calbiochem) (45 ng), rabbit GSK-3β protein (New England Biolabs) (0.75 units) and ^33P-ATP (1 μCi) in 50 mM Tris-HCl (pH 8.0), 10 mM MgCl2, 0.1% BSA, 1 mM DTT and 100 μM Sodium Vanadate. The mixture was reacted for 90 minutes at 30° C. to allow phosphorylation of the PPI-2 protein and then the protein in the reaction was precipitated using 10% TCA. The precipitated protein was collected on filter plates (MultiScreen-DV/Millipore), which were subsequently washed. Finally, the radioactivity was quantified using a TopCount Scintillation Counter (Packard).

The next assay has as its target PKC γ (Homo sapiens, UniProt P05129). In words: Protein Kinase C Histone-Based Assay, γ isoform. The conditions noted are these: histone III substrate, 30 μM ATP, 10 min at 30° C.; read-out: PKC Activity (IC50 μM, Histone Based Assay) Gamma. The procedure: as §1

T1 sequence (G1T8E2 1-432): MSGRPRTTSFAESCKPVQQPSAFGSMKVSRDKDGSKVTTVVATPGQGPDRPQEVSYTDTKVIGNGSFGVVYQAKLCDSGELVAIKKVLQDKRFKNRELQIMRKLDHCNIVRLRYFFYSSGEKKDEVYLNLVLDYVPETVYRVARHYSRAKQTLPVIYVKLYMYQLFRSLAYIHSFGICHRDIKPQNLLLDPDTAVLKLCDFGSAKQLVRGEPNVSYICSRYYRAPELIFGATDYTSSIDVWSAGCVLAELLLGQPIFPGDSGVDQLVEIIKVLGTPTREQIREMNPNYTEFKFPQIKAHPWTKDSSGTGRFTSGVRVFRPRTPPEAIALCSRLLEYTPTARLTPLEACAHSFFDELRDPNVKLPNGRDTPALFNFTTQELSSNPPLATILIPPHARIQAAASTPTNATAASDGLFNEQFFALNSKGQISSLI
PKC β-II, sequence (P05771 1-673 isoform P05771-2): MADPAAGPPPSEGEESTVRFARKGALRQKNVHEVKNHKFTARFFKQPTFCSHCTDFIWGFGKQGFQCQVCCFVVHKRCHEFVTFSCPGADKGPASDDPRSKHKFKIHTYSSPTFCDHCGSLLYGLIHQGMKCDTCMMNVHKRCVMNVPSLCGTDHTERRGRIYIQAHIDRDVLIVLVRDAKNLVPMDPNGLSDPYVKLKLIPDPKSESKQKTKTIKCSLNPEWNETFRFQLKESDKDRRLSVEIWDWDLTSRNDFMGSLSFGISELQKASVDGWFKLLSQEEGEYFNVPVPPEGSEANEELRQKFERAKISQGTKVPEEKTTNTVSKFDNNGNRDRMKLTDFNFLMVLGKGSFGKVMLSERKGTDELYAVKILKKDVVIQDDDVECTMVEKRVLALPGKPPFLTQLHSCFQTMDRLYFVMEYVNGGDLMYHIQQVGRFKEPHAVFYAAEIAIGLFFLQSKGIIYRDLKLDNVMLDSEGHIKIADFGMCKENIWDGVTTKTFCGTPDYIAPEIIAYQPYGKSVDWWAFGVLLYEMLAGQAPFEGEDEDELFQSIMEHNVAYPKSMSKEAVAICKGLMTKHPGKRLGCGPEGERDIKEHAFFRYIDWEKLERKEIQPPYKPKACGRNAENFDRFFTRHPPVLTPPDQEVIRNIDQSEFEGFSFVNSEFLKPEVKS

For the molecule `O=C1NC(=O)C(c2nn(CCCN3CCOCC3)c3ccccc23)=C1c1cn(-c2cccnc2)c2ccccc12` [Compound 68, 3-[1-[3-(4-morpholinyl)propyl]-1H-indazol-3-yl]-4-[1-(3-pyridinyl)-1H-indol-3-yl]-1H-pyrrole-2,5-dione], the half-maximal inhibitory concentration (IC50) stood at 0.011 µM at PKC β-II, 0.217 µM at PKC α, 0.096 µM in assay [1] and 0.426 µM on PKC γ.
In the case of `Cn1cc(C2=C(c3nn(CCCN4CCCC4)c4ccccc34)C(=O)NC2=O)c2cc(Cl)ccc21` [Compound 75, 3-(5-chloro-1-methyl-1H-indol-3-yl)-4-[1-[3-(1-pyrrolidinyl)propyl]-1H-indazol-3-yl]-1H-pyrrole-2,5-dione], the IC50 came out at 0.01 µM at PKC β-II, 0.204 µM at PKC α, 0.033 µM in assay [1] and 0.175 µM at PKC γ.
For `CN1CCN(CCCn2nc(C3=C(c4cn(C)c5ccc(Cl)cc45)C(=O)NC3=O)c3ccccc32)CC1` [Compound 77, 3-(5-chloro-1-methyl-1H-indol-3-yl)-4-[1-[3-(4-methyl-1-piperazinyl)propyl]-1H-indazol-3-yl]-1H-pyrrole-2,5-dione], the IC50 on PKC β-II was determined as 0.046 µM; on PKC α, 0.354 µM; in assay [1] it was 0.043 µM; at PKC γ, 0.89 µM.
Take `Cn1cc(C2=C(c3nn(CCCN4CCOCC4)c4ccccc34)C(=O)NC2=O)c2cc(Cl)ccc21` [Compound 78, 3-(5-chloro-1-methyl-1H-indol-3-yl)-4-[1-[3-(4-morpholinyl)propyl]-1H-indazol-3-yl]-1H-pyrrole-2,5-dione]: the IC50 on PKC β-II stood at 0.016 µM; on PKC α, 0.94 µM; in assay [1], 0.041 µM; at PKC γ it was 0.53 µM.
The matching figures for `CN(CCO)CCCn1nc(C2=C(c3cn(C)c4ccc(Cl)cc34)C(=O)NC2=O)c2ccccc21` [Compound 79, 3-(5-chloro-1-methyl-1H-indol-3-yl)-4-[1-[3-[(2-hydroxyethyl)methylamino]propyl]-1H-indazol-3-yl]-1H-pyrrole-2,5-dione]: 0.007 µM, 0.065 µM, 0.014 µM and 0.074 µM.
In the case of `CNCCCn1nc(C2=C(c3cn(C)c4ccc(Cl)cc34)C(=O)NC2=O)c2ccccc21` [Compound 80, 3-(5-chloro-1-methyl-1H-indol-3-yl)-4-[1-[3-(methylamino)propyl]-1H-indazol-3-yl]-1H-pyrrole-2,5-dione], the IC50 at PKC β-II was 0.018 µM; on PKC α, 0.328 µM; in assay [1], 0.051 µM; at PKC γ, 0.512 µM.
Regarding `O=C1NC(=O)C(c2nn(CCCO)c3ccccc23)=C1c1cn(-c2cccnc2)c2ccccc12` [Compound 94, 3-[1-(3-hydroxypropyl)-1H-indazol-3-yl]-4-[1-(3-pyridinyl)-1H-indol-3-yl]-1H-pyrrole-2,5-dione], the IC50 at PKC β-II is 0.011 µM; on PKC α, 0.306 µM; in assay [1], 0.058 µM; on PKC γ, 0.411 µM.
Regarding `O=C1NC(=O)C(c2nn(CCCO)c3ccccc23)=C1c1cn(-c2cnc3ccccc3c2)c2ccccc12` [Compound 107, 3-[1-[3-hydroxypropyl]-1H-indazol-3-yl]-4-[1-(3-quinolinyl)-1H-indol-3-yl]-1H-pyrrole-2,5-dione], the IC50 on PKC β-II is 0.009 µM; on PKC α, 0.098 µM; in assay [1], 0.82 µM; on PKC γ, 0.018 µM.
In the case of `CN(CCO)CCCn1nc(C2=C(c3cn(-c4cccnc4)c4ccccc34)C(=O)NC2=O)c2ccccc21` [Compound 114, 3-[1-[3-[(2-hydroxyethyl)methylamino]propyl]-1H-indazol-3-yl]-4-[1-(3-pyridinyl)-1H-indol-3-yl]-1H-pyrrole-2,5-dione], the IC50 was 0.004 µM at PKC β-II, 0.047 µM at PKC α, 0.155 µM in assay [1] and 0.038 µM on PKC γ.
